From ChEMBL document CHEMBL1201862, “PubChem BioAssay data set” (2004)
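Five concentrations, 48 hours, 96-well plates. GI50 marks 50% less growth.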 Active and inactive are the calls of the source. No stated cut-off is given here; in the data, active = GI50 up to about 1.1 µM and inactive = higher.

Key:
Assay in all cases: inhibition of tumour cell growth, NCI panel, 48 h
786-0 = system: 786-0
A498 = system: A498
A549 = system: A549
ACHN = system: ACHN
BT-549 = system: BT-549
CAKI-1 = system: CAKI-1
CCRF-CEM = system: CCRF-CEM
COLO 205 = system: COLO 205
DU-145 = system: DU-145
EKVX = system: EKVX
HCC 2998 = system: HCC 2998
HCT-116 = system: HCT-116
HCT-15 = system: HCT-15
HL-60 = system: HL-60
HOP-62 = system: HOP-62
HOP-92 = system: HOP-92
HT-29 = system: HT-29
Hs-578T = system: Hs-578T
IGROV-1 = system: IGROV-1
K562 = system: K562
KM12 = system: KM12
LOX IMVI = system: LOX IMVI
M14 = system: M14
MCF7 = system: MCF7
MDA-MB-231 = system: MDA-MB-231
MDA-MB-435 = system: MDA-MB-435
MDA-N = system: MDA-N
MOLT-4 = system: MOLT-4
NCI-H226 = system: NCI-H226
NCI-H23 = system: NCI-H23
NCI-H460 = system: NCI-H460
NCI-H522 = system: NCI-H522
NCI/ADR-RES = system: NCI/ADR-RES
OVCAR-3 = system: OVCAR-3
OVCAR-4 = system: OVCAR-4
OVCAR-5 = system: OVCAR-5
OVCAR-8 = system: OVCAR-8
PC-3 = system: PC-3
RPMI-8226 = system: RPMI-8226
RXF 393 = system: RXF 393
SF-268 = system: SF-268
SF-295 = system: SF-295
SF-539 = system: SF-539
SK-MEL-28 = system: SK-MEL-28
SK-MEL-2 = system: SK-MEL-2
SK-MEL-5 = system: SK-MEL-5
SK-OV-3 = system: SK-OV-3
SN12C = system: SN12C
SNB-19 = system: SNB-19
SNB-75 = system: SNB-75
SR = system: SR
SW-620 = system: SW-620
T47D = system: T47D
TK-10 = system: TK-10
U-251 = system: U-251
UACC-257 = system: UACC-257
UACC-62 = system: UACC-62
UO-31 = system: UO-31
Malme-3M = system: Malme-3M

Measured: GI50

C=CCN1C(=O)/C(=C/c2ccc(OC)cc2)NC1=S
> 100 µM: HCT-15
inactive: 786-0 > 100 µM | A498 60.4 µM | A549 34.8 µM | ACHN > 100 µM | BT-549 50.2 µM | CAKI-1 > 100 µM | COLO 205 > 100 µM | DU-145 > 100 µM | EKVX 18.3 µM | HCC 2998 > 100 µM | HCT-116 48 µM | HOP-62 > 100 µM | HOP-92 14.5 µM | HT-29 57.9 µM | Hs-578T > 100 µM | IGROV-1 > 100 µM | K562 38.5 µM | KM12 97.7 µM | LOX IMVI 56.1 µM | M14 53.3 µM | MCF7 40.9 µM | MDA-MB-231 > 100 µM | MDA-MB-435 57.3 µM | MDA-N 33.8 µM | MOLT-4 4.59 µM | NCI-H226 37.9 µM | NCI-H23 58.3 µM | NCI-H460 > 100 µM | NCI-H522 41.6 µM | NCI/ADR-RES > 100 µM | OVCAR-3 > 100 µM | OVCAR-4 54.5 µM | OVCAR-5 > 100 µM | OVCAR-8 25.7 µM | PC-3 84.5 µM | RPMI-8226 35.2 µM | RXF 393 37.2 µM | SF-268 > 100 µM | SF-295 54.2 µM | SF-539 > 100 µM | SK-MEL-28 > 100 µM | SK-MEL-2 > 100 µM | SK-MEL-5 30.5 µM | SK-OV-3 > 100 µM | SN12C > 100 µM | SNB-19 > 100 µM | SNB-75 > 100 µM | SR 29.3 µM | SW-620 > 100 µM | T47D 42.2 µM | TK-10 > 100 µM | U-251 82.2 µM | UACC-257 27.9 µM | UACC-62 97.7 µM | UO-31 61.4 µM
active: CCRF-CEM < 0.01 µM | HL-60 0.0355 µM

CC(=O)OCC1OC(n2c3c(c(-c4ccc(C)cc4)c(C#N)c2=S)C(=O)CC(C)(C)C3)C(OC(C)=O)C(OC(C)=O)C1OC(C)=O (stereo not given)
inactive: 786-0 33.7 µM | A498 32.1 µM | A549 50.4 µM | ACHN 39 µM | BT-549 19.3 µM | CAKI-1 52.5 µM | CCRF-CEM 31.6 µM | COLO 205 37.3 µM | DU-145 50.4 µM | HCT-116 34.8 µM | HL-60 23.5 µM | HOP-62 62.5 µM | HOP-92 45.5 µM | HT-29 27.3 µM | Hs-578T 47.5 µM | IGROV-1 50.1 µM | K562 22.7 µM | KM12 36.4 µM | LOX IMVI 13.3 µM | M14 35.5 µM | MCF7 25.6 µM | MDA-MB-231 23.4 µM | MDA-MB-435 27 µM | MDA-N 15.7 µM | MOLT-4 25.1 µM | Malme-3M > 100 µM | NCI-H226 23.3 µM | NCI-H23 42.8 µM | NCI-H460 42.2 µM | NCI-H522 30.8 µM | NCI/ADR-RES 57.4 µM | OVCAR-3 70 µM | OVCAR-4 > 10 µM | OVCAR-5 > 100 µM | OVCAR-8 36.4 µM | PC-3 18.3 µM | RPMI-8226 27.5 µM | RXF 393 23.3 µM | SF-268 28.6 µM | SF-295 25.5 µM | SF-539 23.3 µM | SK-MEL-28 26.2 µM | SK-MEL-5 26.9 µM | SN12C 17.6 µM | SNB-19 > 100 µM | SNB-75 23.9 µM | SR 24.1 µM | SW-620 46 µM | T47D > 10 µM | TK-10 > 100 µM | U-251 30.3 µM | UACC-257 18.5 µM | UACC-62 18.9 µM | UO-31 58.5 µM

Cc1cn(CCOCCOC(=O)NC(CCCNC(=N)N)C(=O)O)c(=O)[nH]c1=O (stereo not given)
inactive: 786-0 > 100 µM | A498 > 100 µM | A549 > 100 µM | ACHN > 100 µM | BT-549 > 100 µM | CCRF-CEM > 100 µM | COLO 205 > 100 µM | DU-145 > 100 µM | EKVX > 100 µM | HCC 2998 > 100 µM | HCT-116 > 100 µM | HL-60 > 100 µM | HOP-62 > 100 µM | HOP-92 > 100 µM | HT-29 > 100 µM | Hs-578T > 100 µM | IGROV-1 > 100 µM | K562 > 100 µM | KM12 > 100 µM | LOX IMVI > 100 µM | M14 > 100 µM | MCF7 > 100 µM | MDA-MB-231 > 100 µM | MDA-MB-435 > 100 µM | MDA-N > 100 µM | MOLT-4 > 100 µM | NCI-H226 > 100 µM | NCI-H23 > 100 µM | NCI-H460 > 100 µM | NCI/ADR-RES 26.8 µM | OVCAR-3 > 100 µM | OVCAR-4 > 100 µM | OVCAR-5 > 100 µM | PC-3 > 100 µM | RPMI-8226 > 100 µM | RXF 393 > 100 µM | SF-268 > 100 µM | SF-295 > 100 µM | SF-539 > 100 µM | SK-MEL-28 > 100 µM | SK-MEL-2 > 100 µM | SK-OV-3 > 100 µM | SN12C > 100 µM | SNB-19 > 100 µM | SNB-75 > 100 µM | SR > 100 µM | SW-620 > 100 µM | T47D > 100 µM | TK-10 > 100 µM | U-251 > 100 µM | UACC-257 > 100 µM | UACC-62 > 100 µM | UO-31 > 100 µM
> 100 µM: HCT-15

CCCCCC(C)(C)CCC(=O)OC1OC(COC2OC(COC3OC(CO)C(O)C(O)C3O)C(O)C(O)C2O)C(O)C(O)C1O (stereo not given)
inactive: 786-0 > 100 µM | A498 > 100 µM | A549 > 100 µM | ACHN > 100 µM | BT-549 > 100 µM | CCRF-CEM > 100 µM | COLO 205 > 100 µM | DU-145 > 100 µM | EKVX > 100 µM | HCC 2998 > 100 µM | HCT-116 > 100 µM | HL-60 > 100 µM | HOP-62 > 100 µM | HOP-92 > 100 µM | HT-29 > 100 µM | Hs-578T > 100 µM | IGROV-1 > 100 µM | K562 > 100 µM | KM12 > 100 µM | LOX IMVI > 100 µM | M14 > 100 µM | MCF7 > 100 µM | MDA-MB-231 > 100 µM | MDA-MB-435 > 100 µM | MDA-N > 100 µM | MOLT-4 > 100 µM | Malme-3M > 100 µM | NCI-H226 > 100 µM | NCI-H23 > 100 µM | NCI-H460 > 100 µM | NCI-H522 > 100 µM | NCI/ADR-RES > 100 µM | OVCAR-3 > 100 µM | OVCAR-5 > 100 µM | OVCAR-8 > 100 µM | PC-3 > 100 µM | RPMI-8226 > 100 µM | RXF 393 6.17 µM | SF-268 > 100 µM | SF-295 > 100 µM | SF-539 > 100 µM | SK-MEL-2 > 100 µM | SK-MEL-5 > 100 µM | SK-OV-3 > 100 µM | SN12C > 100 µM | SNB-19 > 100 µM | SR > 100 µM | SW-620 > 100 µM | T47D > 100 µM | TK-10 > 100 µM | U-251 > 100 µM | UACC-257 > 100 µM | UACC-62 > 100 µM | UO-31 > 100 µM
> 100 µM: HCT-15

CN1CCN(C(=S)N2CCN(C)CC2)CC1
active: CCRF-CEM 0.7 µM | MCF7 1.08 µM | NCI-H522 0.966 µM | SR 0.213 µM
inactive: 786-0 21.9 µM | A498 5.62 µM | A549 > 100 µM | ACHN > 100 µM | BT-549 > 100 µM | CAKI-1 > 100 µM | COLO 205 1.37 µM | DU-145 > 100 µM | HCC 2998 > 61.5 µM | HCT-116 > 100 µM | HL-60 > 100 µM | HOP-62 > 100 µM | HOP-92 > 100 µM | HT-29 1.73 µM | Hs-578T > 100 µM | IGROV-1 > 84.3 µM | K562 7.98 µM | KM12 > 100 µM | LOX IMVI > 100 µM | M14 > 48.1 µM | MDA-MB-231 > 100 µM | MDA-MB-435 > 100 µM | MDA-N > 26.6 µM | Malme-3M > 100 µM | NCI-H226 > 100 µM | NCI-H23 > 32.1 µM | NCI-H460 5.35 µM | NCI/ADR-RES 25.3 µM | OVCAR-4 > 65.2 µM | OVCAR-5 > 100 µM | OVCAR-8 > 100 µM | PC-3 > 29.8 µM | RPMI-8226 2.06 µM | RXF 393 > 100 µM | SF-268 > 100 µM | SF-295 > 100 µM | SF-539 10.8 µM | SK-MEL-28 > 100 µM | SK-MEL-2 > 100 µM | SK-MEL-5 > 26.1 µM | SK-OV-3 > 30.1 µM | SN12C > 100 µM | SNB-19 > 100 µM | SW-620 > 30.8 µM | T47D 2.11 µM | TK-10 > 19.7 µM | U-251 > 100 µM | UACC-257 > 100 µM | UACC-62 4.85 µM | UO-31 > 100 µM
